# Laboratory results published in patent publication US7947726B2, “Non-steroidal ligands for the glucocorticoid receptor, and compositions thereof” (The Regents of the University of California, priority 2002, dated 2011).
# “And” between values parts separate entries of the source, which are not always exact repeats. Equal values may be shown once.
# Legend:
# [1] = biological target: T1, glucocorticoid receptor (GR) (Homo sapiens, UniProt P04150); assay: Glucocorticoid Receptor Competitor Assay Kit (Panvera) ligand binding; settings: relative binding affinity, dexamethasone = 100; for GR binding RBA (dex = 100): Table 3
# T1 construct: purchased Panvera Corp, Madison, Wis
# T1 sequence (P04150 1-777): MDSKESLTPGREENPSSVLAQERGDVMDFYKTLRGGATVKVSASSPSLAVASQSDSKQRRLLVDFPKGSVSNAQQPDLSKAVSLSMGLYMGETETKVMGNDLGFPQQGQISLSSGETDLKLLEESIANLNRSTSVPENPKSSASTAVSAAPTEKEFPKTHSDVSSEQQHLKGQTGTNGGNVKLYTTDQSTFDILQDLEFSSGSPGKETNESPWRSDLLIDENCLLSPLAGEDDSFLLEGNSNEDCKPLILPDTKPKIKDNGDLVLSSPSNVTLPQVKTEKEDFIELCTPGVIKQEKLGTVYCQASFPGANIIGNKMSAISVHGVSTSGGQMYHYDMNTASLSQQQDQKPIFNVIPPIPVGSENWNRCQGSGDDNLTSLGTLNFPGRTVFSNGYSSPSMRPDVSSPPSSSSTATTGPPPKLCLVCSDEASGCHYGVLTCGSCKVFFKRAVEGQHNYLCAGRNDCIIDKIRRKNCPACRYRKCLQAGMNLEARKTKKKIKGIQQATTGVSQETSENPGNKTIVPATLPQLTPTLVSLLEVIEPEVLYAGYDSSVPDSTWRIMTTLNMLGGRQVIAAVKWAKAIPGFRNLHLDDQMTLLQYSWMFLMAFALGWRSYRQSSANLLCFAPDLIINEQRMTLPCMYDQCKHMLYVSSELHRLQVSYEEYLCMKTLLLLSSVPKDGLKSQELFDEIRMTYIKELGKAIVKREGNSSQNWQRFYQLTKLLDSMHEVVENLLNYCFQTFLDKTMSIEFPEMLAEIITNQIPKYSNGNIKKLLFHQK
# Excerpt: The Glucocorticoid Receptor Competitor Assay Kit (Panvera Corp, Madison, Wis.) was used for ligand binding studies. The recommended room temperature protocol was followed for all assayed ligands.
# PR = biological target: T2, PR (Homo sapiens, UniProt P06401); assay: PR activation (max fold activation); assay type: cell-based; settings: Table 4
# T2 sequence (P06401 1-933): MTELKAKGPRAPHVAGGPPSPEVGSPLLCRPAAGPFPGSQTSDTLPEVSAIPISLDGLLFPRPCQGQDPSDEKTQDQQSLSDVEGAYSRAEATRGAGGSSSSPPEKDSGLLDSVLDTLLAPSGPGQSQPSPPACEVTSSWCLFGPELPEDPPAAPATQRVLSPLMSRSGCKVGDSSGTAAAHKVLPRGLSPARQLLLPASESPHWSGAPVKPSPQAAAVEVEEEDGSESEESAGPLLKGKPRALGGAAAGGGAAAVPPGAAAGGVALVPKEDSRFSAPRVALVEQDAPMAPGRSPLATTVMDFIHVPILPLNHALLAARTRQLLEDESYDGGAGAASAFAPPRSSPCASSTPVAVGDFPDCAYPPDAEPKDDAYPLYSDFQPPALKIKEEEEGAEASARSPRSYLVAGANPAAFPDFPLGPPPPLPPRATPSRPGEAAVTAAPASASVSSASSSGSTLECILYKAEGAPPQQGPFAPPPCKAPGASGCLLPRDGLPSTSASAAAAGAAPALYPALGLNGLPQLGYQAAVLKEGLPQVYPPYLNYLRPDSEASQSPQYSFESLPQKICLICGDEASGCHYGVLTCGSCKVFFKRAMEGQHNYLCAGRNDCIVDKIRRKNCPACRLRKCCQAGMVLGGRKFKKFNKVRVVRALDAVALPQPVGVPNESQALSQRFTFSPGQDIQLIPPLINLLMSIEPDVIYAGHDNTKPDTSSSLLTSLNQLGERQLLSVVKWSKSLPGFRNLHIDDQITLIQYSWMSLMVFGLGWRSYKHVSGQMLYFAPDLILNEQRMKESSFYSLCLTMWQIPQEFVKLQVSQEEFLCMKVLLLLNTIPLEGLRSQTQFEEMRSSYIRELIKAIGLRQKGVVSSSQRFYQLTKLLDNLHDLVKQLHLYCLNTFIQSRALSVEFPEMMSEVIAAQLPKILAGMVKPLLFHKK
# GR = biological target: T3, GR (Rattus norvegicus, UniProt P06536); assay: AP-1 repression luciferase assay in U2OS cells stably transfected with rat GR; assay type: cell-based; settings: Table 5, TPA-stimulated U2OS cells; for EC50: read-out: Repression AP-1 pot (EC50); for Emax: U2OS, 12 h, read-out: Repression AP-1 % max repression
# T3 construct: expressed in transfected cells; gift of Keith Yamamoto
# T3 sequence (P06536 1-795): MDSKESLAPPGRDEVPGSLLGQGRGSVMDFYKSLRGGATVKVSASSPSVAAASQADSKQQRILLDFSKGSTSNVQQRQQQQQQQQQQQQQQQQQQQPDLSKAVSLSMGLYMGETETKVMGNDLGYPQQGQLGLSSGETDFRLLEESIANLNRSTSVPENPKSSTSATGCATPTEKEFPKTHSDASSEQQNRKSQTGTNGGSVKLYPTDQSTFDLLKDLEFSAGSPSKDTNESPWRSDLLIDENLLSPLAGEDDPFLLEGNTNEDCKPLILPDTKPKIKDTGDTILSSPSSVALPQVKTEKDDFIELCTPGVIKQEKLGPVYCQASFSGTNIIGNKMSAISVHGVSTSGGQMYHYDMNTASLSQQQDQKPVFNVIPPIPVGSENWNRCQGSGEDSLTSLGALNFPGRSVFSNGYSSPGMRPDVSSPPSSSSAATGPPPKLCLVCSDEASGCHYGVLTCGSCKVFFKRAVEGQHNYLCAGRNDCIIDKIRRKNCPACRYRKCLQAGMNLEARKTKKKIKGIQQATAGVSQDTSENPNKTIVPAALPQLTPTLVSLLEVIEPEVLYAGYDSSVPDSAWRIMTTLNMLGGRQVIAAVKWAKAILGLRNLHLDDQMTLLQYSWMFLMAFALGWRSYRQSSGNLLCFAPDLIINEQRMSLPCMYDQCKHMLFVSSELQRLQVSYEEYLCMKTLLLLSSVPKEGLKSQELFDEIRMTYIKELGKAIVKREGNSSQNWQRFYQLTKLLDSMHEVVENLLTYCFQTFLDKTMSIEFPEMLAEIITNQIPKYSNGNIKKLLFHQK
# Protocol: For API repression assays, U2OS cells stably transfected with rat GR were grown in similar media as for CV-1 cells with the exception of the FBS concentration, which was 10% and the only antibiotic was […]. Cells were plated and transfected in a similar fashion, except for plasmids, which in this case were 50 ng/well AP1-Luc and 10 ng/well β-galactosidase. Post-transfection, cells were incubated with either 50 ng/mL TPA (Phorbol 12-myristate 13-acetate), or 50 ng/mL TPA and various hormone dilutions in 10% charcoal treated FBS media. The cells were incubated for 12 h, and the lysis, β-galactosidase assay, and luciferase assay were performed as previously described.
SMILES,GR Binding RBA (dexamethasone = 100) ([1]; Table 1),GR binding RBA (dex = 100) [1],PR max fold activation (PR),EC50 (GR),Emax (GR) [%]
"Cc1cc(O)cc(C)c1C(O)C1CCCC2=Cc3c(cnn3-c3ccc(F)cc3)CC21C (centres unmarked) [Compound 227, 4-{[1-(4-Fluoro-phenyl)-4a-methyl-4,4a,5,6,7,8-hexahydro-1H-benzo[f]indazol-5-yl]-hydroxy-methyl}-3,5-dimethyl-phenol]",50,103,144 ± 32,6 nM,77
"CC12Cc3cnn(-c4ccc(F)cc4)c3C=C1CCCC2C(O)c1cccc2[nH]ccc12 (centres unmarked) [Compound 237, [1-(4-Fluoro-phenyl)-4a-methyl-4,4a,5,6,7,8-hexahydro-1H-benzo[f]indazol-5-yl]-(1H-indol-4-yl)-methanol]",,110,,4.9 nM,80
"CC12Cc3cnn(-c4ccc(F)cc4)c3C=C1CCCC2C(O)c1ccsc1 (centres unmarked) [Compound 238, [1-(4-Fluoro-phenyl)-4a-methyl-4,4a-5,6,7,8-hexahydro-1H-benzo[f]indazol-5-yl]-thiophen-3-yl-methanol]",,,155 ± 32 and 109 ± 10,19.1 nM and 14.7 nM,75
